# Test results as given in patent US8058243B2, “Method for treating a brain cancer with ifenprodil” (HSC Research and Development Limited Partnership, priority 2006, dated 2011).
# Counter-ions that a name gives are not always drawn. Like-named read-outs stand apart in the source and are kept apart here.
# Test system: murine neural precursor cells (neurosphere cultures)
# Experiment: HTS of LOPAC library against secondary neurosphere cultures, MTT proliferation assay at 3 μM, day 7 (z score, P value)
# Format: cell-based, mouse
# [1] = LOPAC library screen, 3 μM, MTT, neurosphere cultures
# [2] = primary LOPAC screen, 3 μM, MTT, neurosphere proliferation
# [3] = LOPAC library screen at 3 μM, secondary neurosphere cultures, MTT
# [4] = LOPAC primary screen, neurosphere MTT proliferation, 3 μM, day 7
# [5] = yes/no: significantly inhibited neurosphere proliferation (P<0.01) in primary screen
# [6] = LOPAC screen, neurosphere MTT proliferation, 3 μM, day 7
# [7] = yes/no: significantly inhibited neurosphere proliferation in the primary screen
# [8] = LOPAC library screen, 3 μM, MTT, secondary neurosphere cultures, day 7
# [9] = yes = significantly inhibited neurosphere proliferation (P<0.01) in the primary screen
# [10] = yes/no: significantly inhibited neurosphere proliferation in primary screen
# [11] = yes/no: significantly inhibited neurosphere proliferation (P<0.01) in the primary screen
molecule,measurement,setting,value
COc1cc2nc(N3CCN(C(=O)C4CCCO4)CC3)nc(N)c2cc1OC (stereo not drawn) [Terazosin hydrochloride],Activity,,no
same,Z Score,[1],−0.05722
same,Z score,[2],−0.057
CC(C)C(=O)Nc1ccc([N+](=O)[O-])c(C(F)(F)F)c1 [Flutamide],Z Score,[3],−0.1133
same,Z score,[4],−0.113
CCn1cc(C(=O)O)c(=O)c2cc(F)c(N3CCNC(C)C3)c(F)c21 (stereo not drawn) [Lomefloxacin hydrochloride],Activity,,no
same,Z Score,[1],0.1374
same,Z score,[4],0.137
CC1CN(S(=O)(=O)c2cccc3cnccc23)CCN1.Cl.Cl (stereo not drawn) [1-(5-Isoquinolinylsulfonyl)-3-methylpiperazine dihydrochloride],Z Score,"168 h, 3 µM",0.4769
same,Z score,"168 h, 3 µM",0.477
same,Activity,[5],no
N=C(N)NOCC[C@H](N)C(=O)O.O=S(=O)(O)O [L-Canavanine sulfate],Z Score,,−0.9024
same,Z score,[6],−0.902
same,Activity,[5],no
CC(N)c1cccc(Cl)c1Cl.Cl (stereo not drawn),Z Score,,−2.251
Cl.NCCc1ccc(O)cc1 [4-Hydroxyphenethylamine hydrochloride],Z Score,,1.03
same,Z score,[2],1.030
same,Activity,[7],no
"C#CCn1c(=O)c2c(ncn2C)n(C)c1=O [3,7-Dimethyl-I-propargylxanthine]",Z Score,,1.454
same,Z score,[6],1.454
same,Activity,[5],no
CC(=O)[C@]1(O)Cc2c(O)c3c(c(O)c2[C@@H](O[C@H]2C[C@H](N)[C@H](O)[C@H](C)O2)C1)C(=O)c1ccccc1C3=O [Idarubicin],Z Score,[8],−11.27
same,Z score,[4],−11.274
same,Activity,[9],yes
CCN1C[C@]2(C)CC[C@H](O)[C@]34C1[C@@H](C[C@H]23)[C@@]1(O)C[C@H](OC)[C@H]2C[C@@H]4[C@@H]1[C@H]2O [Karakoline],Z Score,,−1.625
same,Z score,[4],−1.625
same,Activity,[5],no
OCc1ccc(-c2nn(Cc3ccccc3)c3ccccc23)o1 [YC-1],Z Score,,0.4335
same,Z score,[2],0.433
same,Activity,[7],no
"CCCn1c(=O)c2c(ncn2C)n(CCC)c1=O [1,3-Dipropyl-7-methylxanthine]",Z Score,"168 h, 3 µM",−0.08896
same,Z score,"168 h, 3 µM",−0.089
same,Activity,[5],no
NS(=O)(=O)Cc1noc2ccccc12 [Zonisamide sodium],Z Score,[3],−0.9169
same,Z score,[2],−0.917
same,Activity,[7],no
CC(C)[C@H]1CN[C@H](C(=O)O)[C@H]1CC(=O)O [Dihydrokainic acid],Z Score,,1.329
same,Z score,[6],1.329
same,Activity,[5],no
Oc1ccc(C2CNCCc3c2cc(O)c(O)c3Cl)cc1 (stereo not drawn) [Fenoldopam bromide],Z Score,[1],0.05219
same,Z score,[4],0.052
same,Activity,[5],no
CC[C@H](CO)Nc1nc(NCc2ccccc2)c2ncn(C(C)C)c2n1 [Roscovitine],Activity,,no
same,Z Score,,0.00273
same,Z score,,0.003
L-Methionine sulfoximine,Activity,,no
same,Z Score,,0.08671
same,Z score,,0.087
CNC(=C[N+](=O)[O-])NCCSCc1ccc(CN(C)C)o1 [Ranitidine hydrochloride],Z Score,[1],0.02275
same,Z score,[4],0.023
same,Activity,[10],no
COc1ccc2[nH]c3c(c2c1)CCNC3,Z score,[4],−2.661
same,Activity,[9],yes
Cc1ncc(CNC(=O)N(CCCl)N=O)c(N)n1.Cl [Nimsutine hydrochloride],Z score,[4],−0.652
same,Activity,[9],no
N#CC(C#N)=Cc1cc(O)c(O)c(O)c1 [Tyrphostin 25],Z Score,,−0.2591
same,Z score,[4],−0.259
same,Activity,[10],no
C=CC(N)CCC(=O)O (racemic) [(±)-gamma-Vinyl GABA],Z score,[2],−0.701
same,Activity,[7],no
Br.C=CCN1CCc2c(cc(O)c(O)c2Cl)C(c2ccccc2)C1 (stereo not drawn) [(B1)-Chloro-APB hydrobromide],Z Score,,−0.111
NC[C@H](O)c1ccc(O)c(O)c1.O=C(O)C(O)C(O)C(=O)O (racemic) [(±)-Norepinephrine (+)bitartrate],Z score,[4],0.099
same,Activity,[10],no
C1CCc2nnnn2CC1 [Pentylenetetrazole],Z Score,[3],−0.9274
same,Z score,[4],−0.927
same,Activity,[9],no
Br.Cc1cccc(C2CN(C)CCc3c2cc(O)c(O)c3Cl)c1 (stereo not drawn) [SKF 83959 hydrobromide],Z Score,,−1.357
same,Z score,[4],−1.357
same,Activity,[10],no
"N/C(=N\C(=O)c1nc(Cl)c(N)nc1N)NCc1ccc(Cl)c(Cl)c1 [3′,4′-Dichlorobenzamil]",Z Score,,−2.581
same,Z score,[4],−2.581
same,Activity,[11],yes
O=C(/C=C/c1ccc(O)cc1)c1ccc(O)cc1O [Isoliquiritigenin],Z Score,"168 h, 3 µM",−2.817
same,Z score,"168 h, 3 µM",−2.817
same,Activity,[11],yes
NCC(O)(CS(=O)(=O)O)c1ccc(Cl)cc1 (stereo not drawn) [2-Hydroxysaclofen],Z Score,[8],−1.624
same,Z score,[4],−1.624
same,Activity,[9],no
O=C(O)c1cccnc1Nc1cccc(C(F)(F)F)c1 [Niflumic acid],Z Score,[8],−1.958
same,Z score,[4],−1.958
same,Activity,[9],no
Cl.Cl.Clc1cccc(N2CCNCC2)c1 [1-(3-Chlorophenyl)piperazine dihydrochloride],Z score,[6],0.952
same,Activity,[5],no
CC(=N)NCCC[C@H](N)C(=O)O.Cl [L-N5-(1-Iminoethyl)ornithine hydrochloride],Z Score,,−0.9339
same,Z score,[4],−0.934
same,Activity,[5],no
"CC(C)C[C@H](N)CSSC[C@@H](N)CC(C)C.Cl.Cl [L-Leucinethiol, oxidized dihydrochloride]",Z Score,,−0.584
same,Z score,[4],−0.584
same,Activity,[5],no
CC(=O)N[C@H](C(=O)O)C(C)(C)SN=O (racemic) [S-Nitroso-N-acetylpenicillamine],Z Score,[8],−1.645
same,Z score,[4],−1.645
same,Activity,[9],no
COc1ccccc1N1CCN(CCN(C(=O)c2ccc(I)cc2)c2ccccn2)CC1.Cl [p-MPPI hydrochloride],Z Score,,0.2606
same,Z score,[4],0.261
same,Activity,[9],no
NC(CP(=O)(O)O)C(=O)O (stereo not drawn) [(B1)-2-Amino-3-phosphonopropionic acid],Z Score,,1.25
CN(C)CCOC(=O)COc1ccc(Cl)cc1 [Centrophenoxine hydrochloride],Z Score,,−0.3302
same,Z score,[6],−0.330
same,Activity,[5],no
CC1CCN(CC[C@H]2CCCN2S(=O)(=O)c2cccc(O)c2)CC1.Cl [SB 269970 hydrochloride],Z Score,,−1.1
same,Z score,[4],−1.100
same,Activity,[10],no
trans-(±)-ACPD,Z score,[2],0.315
same,Activity,[7],no
NC[C@@H]1O[C@H](O[C@H]2[C@@H](O)[C@H](O[C@@H]3[C@@H](O)[C@H](N)C[C@H](N)[C@H]3O[C@H]3O[C@H](CO)[C@@H](O)[C@H](O)[C@H]3N)O[C@@H]2CO)[C@H](N)[C@@H](O)[C@@H]1O [Paromomycin sulfate],Z Score,[1],0.821
O=c1cc(O)cc(/C=C/c2ccc(O)c(O)c2)o1 [Hispidin],Z Score,"168 h, 3 µM",0.8896
same,Z score,"168 h, 3 µM",0.890
same,Activity,[5],no
"N=C1Sc2ccccc2C2=NCCCN12 [PD 404,182]",Z Score,,0.09055
same,Z score,[4],0.091
same,Activity,[10],no
NC(=O)c1ncn([C@@H]2O[C@H](CO)[C@@H](O)[C@H]2O)n1 [Ribavirin],Activity,,no
CC(NC(C)(C)C)C(=O)c1cccc(Cl)c1 (stereo not drawn) [Bupropion hydrochloride],Z Score,[1],0.2671
same,Z score,[6],0.267
same,Activity,[5],no
Oc1c2ccccc2c2c3c(cccc13)N=N2 [SP600125],Z Score,[8],−1.986
same,Z score,[6],−1.986
"C[C@H](Cc1ccc2c(c1)OC(C(=O)[O-])(C(=O)[O-])O2)NC[C@H](O)c1cccc(Cl)c1.[Na+].[Na+] [CL 316,243]",Z score,[6],0.621
same,Activity,[5],no
NS 521 oxalate,Z Score,,−11.27
CN(C)c1ccc(/C=C2\C(=O)Nc3ccccc32)cc1 [SU 4312],Z Score,,0.2692
same,Z score,[4],0.269
same,Activity,[10],no
CC(N)(C(=O)O)c1ccc(C(=O)O)cc1 (racemic) [(±)-alpha-Methyl-4-carboxyphenylglycine],Z score,[4],0.727
same,Activity,[9],no
Cl.NCCc1ccc(O)c(O)c1 [Dopamine hydrochloride],Activity,,no
same,Z Score,,1.352
same,Z score,,1.352
Piribedil maleate,Z Score,[3],−0.3345
same,Z score,[4],−0.334
same,Activity,[11],no
C[C@]12CC[C@@H]3c4ccc(O)cc4CC[C@H]3[C@@H]1CCC2=O [Estrone],Z Score,[1],0.04081
same,Z score,[4],0.041
Cl.NCCc1c[nH]c2ccccc12 [Tryptamine hydrochloride],Z Score,,1.245
same,Z score,[4],1.245
same,Activity,[10],no
COC(=O)Nc1nc2ccc(C(=O)c3cccs3)cc2[nH]1 [Nocodazole],Z Score,[3],−0.1891
same,Z score,[4],−0.189
same,Activity,[9],no
O=C(O)C1=CC(=C(c2ccc(O)c(C(=O)O)c2)c2ccc(O)c(C(=O)O)c2)C=CC1=O [Aurintricarboxylic acid],Z Score,"168 h, 3 µM",0.5709
same,Z score,"168 h, 3 µM",0.571
COC(=O)C(N)Cc1ccc(Cl)cc1.Cl (racemic) [DL-p-Chlorophenylalanine methyl ester hydrochloride],Z Score,,0.1276
same,Z score,[6],0.128
same,Activity,[5],no
C/C(=C\c1ccc(C(=O)O)cc1)c1ccc2c(c1)C(C)(C)CCC2(C)C [TTNPB],Z Score,,−2.158
same,Z score,[2],−2.158
same,Activity,[7],no
